Source: article PMC5005324, “Unique Footprint in the scl1.3 Locus Affects Adhesion and Biofilm Formation of the Invasive M3-Type Group A Streptococcus” (Frontiers in Cellular and Infection Microbiology, 2016)
Bridge positions count the residues as written; N and C are the ends. Ends that are not written are not given here.

B1: C-C′ cyclic peptide (EDA-derived, mimics the C-C′ β-hairpin of the extra domain A of cellular fibronectin) (peptide)
peptide: Ac-CRVTYSSPEDGIHELFC-NH2
modifications: disulfide 1-17
SMILES: CC[C@H](C)[C@@H]1NC(=O)CNC(=O)[C@H](CC(=O)O)NC(=O)[C@H](CCC(=O)O)NC(=O)[C@@H]2CCCN2C(=O)[C@H](CO)NC(=O)[C@H](CO)NC(=O)[C@H](Cc2ccc(O)cc2)NC(=O)[C@H]([C@@H](C)O)NC(=O)[C@H](C(C)C)NC(=O)[C@H](CCCNC(=N)N)NC(=O)[C@@H](NC(C)=O)CSSC[C@@H](C(N)=O)NC(=O)[C@H](Cc2ccccc2)NC(=O)[C@H](CC(C)C)NC(=O)[C@H](CCC(=O)O)NC(=O)[C@H](Cc2c[nH]cn2)NC1=O

Columns and labels:
[1] = target: rScl1.3FL; assay: Tryptophan fluorescence quenching binding assay in solution; parameters: species or system Streptococcus pyogenes (M3-type GAS, MGAS315); details: rScl1.3FL 30 μM, peptide 0-300 μM, 25.0°C, excitation 298 nm, emission 333 nm; 1:1 model; duplicates
Procedure: rScl1.3FL protein, at a concentration of 30 μM, was incubated with increasing concentrations of C-C′ cyclic peptide (0–300 μM) at 25.0°C, using an excitation wavelength of 298.0 nm and a fluorescence emission wavelength ranging from 300 to 400 nm. The acquisition parameters were set as follows: excitation and emission slits at 5 nm; 120 nm/min scan rate; 1.00 nm data interval averaging time at 0.500 s, PMT voltage at “high.” Fluorescence values were recorded at 333 nm, and subtracted from the fluorescence intensity of the ligand-free protein, generating −Δfluorescence. The −Δfluorescence values were plotted against the peptide concentration (Williamson, [2013]). Experiments were carried out in duplicates. A control assay was carried out employing the buffer as titrant to assess that the dilution effect was under 3%, not affecting the results.

[2] = target: rScl1.3FL; assay: Surface plasmon resonance binding of C-C′ cyclic peptide to immobilized rScl1.3FL; parameters: species or system Streptococcus pyogenes (M3-type GAS, MGAS315); details: Biacore 3000, 25°C; rScl1.3FL immobilized on streptavidin chip (~100 RU); peptide 10-500 μM; HBS buffer pH 7.4; 1:1 Langmuir model; duplicates; read-out: dissociation constant KD (SPR)
Procedure: Real time binding assays were performed at 25°C on a Biacore 3000 Surface Plasmon Resonance (SPR) instrument (GE Healthcare). For immobilization, rScl1.3FL protein containing the C-terminal Strep-tag II was injected at a concentration of 40 μM on streptavidin-coated sensor chip, SA Biacore, until the desired level of immobilization was achieved (averaged value of 100 RU). Binding assays were carried out by injecting the C-C′ cyclic peptide at concentrations ranging between 10 and 500 μM. Experiments were carried out in HBS buffer (10 mM HEPES, 150 mM NaCl, 3 mM EDTA, pH 7.4). The association phase (kon) was followed for 270 s, whereas the dissociation phase (koff) was followed for 300 s. The reference chip sensorgrams were subtracted from sample sensorgrams. Experiments were carried out in duplicates. Kinetic parameters were estimated assuming a 1:1 Langmuir binding model and using version 4.1 Evaluation Software (GE Healthcare).

[3] = target: recombinant full-length Scl1.3FL protein (streptococcal collagen-like protein 1, M3-type, repaired allele) (Streptococcus pyogenes (group A Streptococcus), M3-type strain MGAS315); assay: other fluorescence titration; tryptophan fluorescence quenching in solution; rScl1.3FL at 30 μM with 0-300 μM C-C′ cyclic peptide, 25.0°C, excitation 298 nm, read at 333 nm; 1:1 model
[4] = target: recombinant full-length Scl1.3FL protein (streptococcal collagen-like protein 1, M3-type, repaired allele) (Streptococcus pyogenes (group A Streptococcus), M3-type strain MGAS315); assay: SPR; Biacore 3000, 25°C; rScl1.3FL with C-terminal Strep-tag II immobilised on a streptavidin-coated SA chip (about 100 RU); C-C′ cyclic peptide injected at 10-500 μM; HBS buffer (10 mM HEPES, 150 mM NaCl, 3 mM EDTA, pH 7.4); 1:1 Langmuir model

Molecule | Kd [1] [µM] | Kd [2] [µM] | Kd [3] [µM] | Kd [4] [µM]
CRVTYSSPEDGIHELFC (disulfide 1-17 (inferred)) [C-C′ cyclic peptide, Disulfide-cyclised, acetylated and amidated peptide mimicking the C-C′ β-hairpin of the EDA domain of cellular fibronectin] | 44.5 ± 9 | 63.3 | – | –
B1 | – | – | 44.5 | 63.3
